Results from patent publication EP3283473B1, “GHRELIN O-ACYL TRANSFERASE INHIBITORS” (Eli Lilly and Company, priority 2015, dated 2016).

Target: T1, GOAT enzyme (Mus musculus, UniProt P0C7A3)
T1 construct: from tissue; host or cells: living male C57BL/6 mice (endogenous enzyme)
T1 sequence (P0C7A3 1-435): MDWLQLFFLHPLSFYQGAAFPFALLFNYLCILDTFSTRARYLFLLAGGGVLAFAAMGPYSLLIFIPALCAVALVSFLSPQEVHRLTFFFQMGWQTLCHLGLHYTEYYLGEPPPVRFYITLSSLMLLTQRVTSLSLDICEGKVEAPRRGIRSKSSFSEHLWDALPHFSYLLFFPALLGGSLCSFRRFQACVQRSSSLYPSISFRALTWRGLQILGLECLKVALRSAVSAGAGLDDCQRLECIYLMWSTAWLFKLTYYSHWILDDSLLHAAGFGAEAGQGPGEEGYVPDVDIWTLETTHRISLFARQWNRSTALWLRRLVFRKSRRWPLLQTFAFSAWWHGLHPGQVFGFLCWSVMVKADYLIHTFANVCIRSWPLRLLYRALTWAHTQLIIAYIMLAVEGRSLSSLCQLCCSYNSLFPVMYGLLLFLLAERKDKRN
Assay: In vivo dose dependent 3 day BID study for GOAT inhibitor (plasma AG and UAG by ELISA)
Set-up: species or system male C57BL/6 mice
Conditions: for decreases plasma AG / increases UAG: administration for 3 days; for decreases plasma AG / increases UAG / AG (% of control) / AG/total-ghrelin (% of vehicle control) / UAG (% of vehicle control): mice; for reduction in AG to total ghrelin ratio: compared to vehicle-treated control animals; for AG (% of control) / AG/total-ghrelin (% of vehicle control) / UAG (% of vehicle control): oral gavage BID, 3 days, plasma
Description: Comparing the change in the ratio of AG to total ghrelin in the compound treated group and that of the vehicle treated group reflects the degree of GOAT enzyme inhibition in vivo, due to the dynamic processing of UAG to AG by the GOAT enzyme. In the in vivo pharmacodynamic studies herein, the levels of AG and UAG in plasma and stomach in the vehicle and compound treated groups are measured by ELISA specifically to these two analytes. The total ghrelin level of each sample is computed as the sum of AG and UAG by these ELISA measurements. The ratio of AG to total ghrelin is defined by the level of AG in each sample divided by the level of total ghrelin in the same sample. The levels of AG, UAG and ratio of AG to total ghrelin in the vehicle treated group is computed and set as 100%. The relative change of these parameters in the compound treated group is then computed to determine the effectiveness of the test compound.
Purchase male C57BL/6 mice from Harlan (Indianapolis, IN) at 9 weeks of age. House the mice individually in a temperature-controlled (24 °C) facility with a 12 hours light/dark cycle (lights on 2200 h), and allow free access to a standard rodent chow (diet 2014, Harlan) and water. Typically, use the mice when they are 10-13 weeks of age at the time of the study. On day 0 of the experiment, randomize the mice into treatment groups (N=7/group) so each group has similar mean body weights. On day 1 and day 2, treat the animals with vehicle (1% hydroxyethylcellulose, 0.25% TWEEN™ 80, 0.05% antifoam) or test compound prepared in the vehicle as suspension at various dosages by oral gavage at 7 am and 7 pm. On day 3, fast the animals, move them into clean cages and dose with vehicle or the test compound again at 8 am by oral gavage. That same day at 1 pm, sacrifice the animals by decapitation to collect blood. For details of blood collection and plasma treatments see Blood collection and Extraction of Ghrelin from Plasma section below.
Collect approximately 600 µL blood into a pre-weighed EDTA tube containing 600 µL (defined as Vpreservative) freshly-prepared preservative (4 mM PEFABLOC® [4-(2-aminoethyl) benzenesulfonyl fluoride hydrochloride], 72 mM NaCl, 58 mM NaF, 0.032 N hydrochloric acid, pH 3.0) and mix immediately. Weigh the tube again and keep on ice. To accurately determine the exact blood volume of each sample using this blood collection procedure, the weight of the blood for each mouse is computed using the following equation: Weight of Blood = (Weight of the tube containing Blood + preservative)−; (Weight of the tube containing preservative) [formula] Blood volume(Vblood) = (Weight of blood)/1.06 [formula]
Within 15 minutes after the blood collection, samples are centrifuged at 5000 rpm at 4 °C for 8 min. Remove plasma (650 µL) to a 5 mL glass tube containing 1 N hydrochloric acid (65µL), mix and keep on ice.
AG and UAG are extracted from plasma using SEP-PAK®_C18 column to remove interference prior to performing the ELISA. The solid phase extraction of AG and UAG peptides by SEP-PAK®_C18 columns can be performed on a vacuum manifold (Waters Corp) or using a peristaltic pump. The sample SEP-PAK®_column extraction procedure is independently applied to the plasma sample obtained from each individual mouse. The general extraction protocol is described as follows.
All solutions used for the entire protocol of the SEP-PAK® column extraction should be at ice cold condition. Wet SEP-PAK®_columns (WAT054960, Waters Corp, Milford MA) with 99.9% ACN/0.1% TFA (1 mL of solution of 100 mL ACN/0.1 mL TFA). […] Once liquid is removed from the column, stop the pressure. Equilibrate the columns with 3% ACN/0.1% TFA (1 mL of 97 mL water, 3 mL ACN, 0.1 mL TFA). […] Dilute approximately 650 µL acidified plasma (defined as Vplasma added to column) to 1.4 mL ice cold 0.1% TFA. Load all diluted acidified plasma from the previous step onto the columns. […]

## Cc1nc(C(F)(F)F)nc(N)c1CCC1CCN(C(=O)[C@H](C)NC(=O)c2ccnn2C)CC1 [Example 2, N-[(1S)-2-[4-[2-[4-Amino-6-methyl-2-(trifluoromethyl)pyrimidin-5-yl]ethyl]-1-piperidyl]-1-methyl-2-oxo-ethyl]-2-methyl-pyrazole-3-carboxamide]
0.1 mg/kg
  decreases plasma AG: 40%
  increases UAG: 2.10 fold
  reduction in AG to total ghrelin ratio: 57%
  AG (% of control): 60 ± 8 (n=7) % of control
  AG/total-ghrelin (% of vehicle control): 43 ± 3 (n=7) % of vehicle control
  UAG (% of vehicle control): 210 ± 43 (n=7) % of vehicle control
0.3 mg/kg
  decreases plasma AG: 60%
  increases UAG: 2.22 fold
  reduction in AG to total ghrelin ratio: 62%
  AG (% of control): 40 ± 10 (n=7) % of control
  AG/total-ghrelin (% of vehicle control): 28 ± 1 (n=7) % of vehicle control
  UAG (% of vehicle control): 222 ± 54 (n=7) % of vehicle control
1 mg/kg
  decreases plasma AG: 56%
  increases UAG: 3.57 fold
  reduction in AG to total ghrelin ratio: 79%
  AG (% of control): 44 ± 6 (n=14) % of control
  AG/total-ghrelin (% of vehicle control): 21 ± 1 (n=14) % of vehicle control
  UAG (% of vehicle control): 357 ± 30 (n=14) % of vehicle control
3 mg/kg
  decreases plasma AG: 63%
  increases UAG: 3.49 fold
  reduction in AG to total ghrelin ratio: 82%
  AG (% of control): 37 ± 9.6 (n=14) % of control
  AG/total-ghrelin (% of vehicle control): 18 ± 5 (n=14) % of vehicle control
  UAG (% of vehicle control): 349 ± 41 (n=14) % of vehicle control
10 mg/kg
  decreases plasma AG: 63%
  increases UAG: 3.78 fold
  reduction in AG to total ghrelin ratio: 82%
  AG (% of control): 37 ± 9.9 (n=7) % of control
  AG/total-ghrelin (% of vehicle control): 18 ± 3 (n=7) % of vehicle control
  UAG (% of vehicle control): 378 ± 59 (n=7) % of vehicle control
